Data published in US8883782B2, “Spiro-tetracyclic ring compounds as beta-secretase modulators and methods of use” (Amgen Inc., priority 2010, dated 2014).
Where two headings read alike, the source gives them in different places.

Columns and labels:
[1] = tested on: Aβ40 in conditioned medium of cells stably expressing Amyloid Precursor Protein (APP); test: In vitro BACE cell-based assay (Aβ40 in conditioned medium, sandwich ELISA); conditions: read-out: HEK cell assay
Procedure, shortened: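 Secreted Aβ40 is captured with pAb40 and detected with biotinylated 6E10, read by europium time-resolved fluorescence. IC50 comes from percent inhibition versus concentration.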

[2] = biological target: Beta Secretase enzyme (BACE) (Homo sapiens, UniProt P56817); test: In vitro enzymatic BACE FRET (fluorescence resonance energy transfer) assay; type: biochemical; conditions: average IC50, enzyme assay; read-out: BACE 1 FRET assay
Procedure, shortened: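 Buffer 0.05 M acetate pH 4.2, 10% DMSO final, 100 uM genapol (sub-CMC); start with 50 nM FRET substrate; 1 h incubation; Tris stop; fluorescence read.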

[3] = Homo sapiens, HEK293, average IC50, HEK cells

Sequence of Beta Secretase enzyme (BACE) (P56817 46-501, species assumed): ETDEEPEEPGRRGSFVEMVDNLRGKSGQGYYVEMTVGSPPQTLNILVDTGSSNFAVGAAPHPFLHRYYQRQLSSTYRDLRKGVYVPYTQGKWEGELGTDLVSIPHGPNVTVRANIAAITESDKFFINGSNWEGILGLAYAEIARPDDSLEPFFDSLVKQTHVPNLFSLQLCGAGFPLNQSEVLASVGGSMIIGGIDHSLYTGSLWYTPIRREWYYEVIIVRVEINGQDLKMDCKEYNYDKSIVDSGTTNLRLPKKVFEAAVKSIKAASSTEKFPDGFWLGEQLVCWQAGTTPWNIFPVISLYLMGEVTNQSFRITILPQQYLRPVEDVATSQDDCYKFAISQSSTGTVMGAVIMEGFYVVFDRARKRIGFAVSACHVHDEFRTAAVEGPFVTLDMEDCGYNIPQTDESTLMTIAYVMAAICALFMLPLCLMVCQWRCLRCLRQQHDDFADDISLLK

Cc1cc(-c2ccc3c(c2)[C@@]2(COC(N)=N2)c2cc(C4=CCOCC4)cnc2O3)cnc1F [Example 467, (5S)-3-(3,6-dihydro-2H-pyran-4-yl)-7-(6-fluoro-5-methyl-3-pyridinyl)spiro[chromeno[2,3-b]pyridine-5,4′-[1,3]oxazol]-2′-amine]
IC50 [1, 3]: 50.8 nM | IC50 [2]: 20.8 nM

Cc1cc(-c2ccc3c(c2)[C@@]2(COC(N)=N2)c2cc(C#CC4(C)COC4)cnc2O3)cnc1F [Example 468, (5S)-7-(6-fluoro-5-methyl-3-pyridinyl)-3-((3-methyl-3-oxetanyl)ethynyl)spiro[chromeno[2,3-b]pyridine-5,4′-[1,3]oxazol]-2′-amine]
IC50 [1, 3]: 28.7 nM | IC50 [2]: 7.4 nM

CC1(C)C[C@H](c2cnc3c(c2)[C@]2(COC(N)=N2)c2cc(-c4cccnc4F)ccc2O3)CCO1 [Example 469, (5S)-3-((4R)-2,2-dimethyltetrahydro-2H-pyran-4-yl)-7-(2-fluoro-3-pyridinyl)spiro[chromeno[2,3-b]pyridine-5,4′-[1,3]oxazol]-2′-amine]
IC50 ([1]; average IC50, HEK cells): 13.9 nM | IC50 [2]: 2.8 nM

CC1(C)C[C@@H](c2cnc3c(c2)[C@]2(COC(N)=N2)c2cc(-c4cccnc4F)ccc2O3)CCO1 [Example 470, (5S)-3-((4S)-2,2-dimethyltetrahydro-2H-pyran-4-yl)-7-(2-fluoro-3-pyridinyl)spiro[chromeno[2,3-b]pyridine-5,4′-[1,3]oxazol]-2′-amine]
IC50 [1, 3]: 14.9 nM | IC50 [2]: 3.3 nM

CC1(C)C[C@H](c2cnc3c(c2)[C@]2(COC(N)=N2)c2cc(-c4cccc(C#N)c4)ccc2O3)CCO1 [Example 471, 3-((5S)-2′-amino-3-((4R)-2,2-dimethyltetrahydro-2H-pyran-4-yl)spiro[chromeno[2,3-b]pyridine-5,4′-[1,3]oxazol]-7-yl)benzonitrile]
IC50 ([1]; average IC50, HEK cells): 14 nM | IC50 [2]: 5.1 nM

CC1(C)C[C@@H](c2cnc3c(c2)[C@]2(COC(N)=N2)c2cc(-c4cccc(C#N)c4)ccc2O3)CCO1 [Example 472, 3-((5S)-2′-amino-3-((4S)-2,2-dimethyltetrahydro-2H-pyran-4-yl)spiro[chromeno[2,3-b]pyridine-5,4′-[1,3]oxazol]-7-yl)benzonitrile]
IC50 [1, 3]: 4.4 nM | IC50 [2]: 2.3 nM

CC1(C)C[C@H](c2cnc3c(c2)[C@]2(COC(N)=N2)c2cc(-c4cccc(Cl)c4)ccc2O3)CCO1 [Example 473, (5S)-7-(3-chlorophenyl)-3-((4R)-2,2-dimethyltetrahydro-2H-pyran-4-yl)spiro[chromeno[2,3-b]pyridine-5,4′-[1,3]oxazol]-2′-amine]
IC50 [1, 3]: 15.5 nM | IC50 [2]: 2.1 nM

CC1(C)C[C@@H](c2cnc3c(c2)[C@]2(COC(N)=N2)c2cc(-c4cccc(Cl)c4)ccc2O3)CCO1 [Example 474, (5S)-7-(3-chlorophenyl)-3-((4S)-2,2-dimethyltetrahydro-2H-pyran-4-yl)spiro[chromeno[2,3-b]pyridine-5,4′-[1,3]oxazol]-2′-amine]
IC50 ([1]; average IC50, HEK cells): 9.4 nM | IC50 [2]: 0.9 nM

CC1(C)C[C@H](c2cnc3c(c2)[C@]2(COC(N)=N2)c2cc(-c4cncc(Cl)c4)ccc2O3)CCO1 [Example 475, (5S)-7-(5-chloro-3-pyridinyl)-3-((4R)-2,2-dimethyltetrahydro-2H-pyran-4-yl)spiro[chromeno[2,3-b]pyridine-5,4′-[1,3]oxazol]-2′-amine]
IC50 [1, 3]: 7.3 nM | IC50 [2]: 2.2 nM

CC1(C)C[C@@H](c2cnc3c(c2)[C@]2(COC(N)=N2)c2cc(-c4cncc(Cl)c4)ccc2O3)CCO1 [Example 476, (5S)-7-(5-chloro-3-pyridinyl)-3-((4S)-2,2-dimethyltetrahydro-2H-pyran-4-yl)spiro[chromeno[2,3-b]pyridine-5,4′-[1,3]oxazol]-2′-amine]
IC50 ([1]; average IC50, HEK cells): 4.9 nM | IC50 [2]: 1.3 nM

NC1=N[C@@]2(CO1)c1cc(-c3cccnc3N3CCC(F)(F)CC3)ccc1Oc1ncc(N3CCC(F)(F)CC3)cc12 [Example 477, (5S)-3-(4,4-difluoro-1-piperidinyl)-7-(2-(4,4-difluoro-1-piperidinyl)-3-pyridinyl)spiro[chromeno[2,3-b]pyridine-5,4′-[1,3]oxazol]-2′-amine]
IC50 [1, 3]: 1200 nM | IC50 [2]: 330 nM
